SMILES strings stand for the structures.

In test [1] the target is T1, 5-Lipoxygenase (Rattus norvegicus, UniProt P12527).
T1 construct: endogenous in cells; host or cells: RBL-1 (rat basophilic leukemia) cells
T1 sequence (P12527 1-673): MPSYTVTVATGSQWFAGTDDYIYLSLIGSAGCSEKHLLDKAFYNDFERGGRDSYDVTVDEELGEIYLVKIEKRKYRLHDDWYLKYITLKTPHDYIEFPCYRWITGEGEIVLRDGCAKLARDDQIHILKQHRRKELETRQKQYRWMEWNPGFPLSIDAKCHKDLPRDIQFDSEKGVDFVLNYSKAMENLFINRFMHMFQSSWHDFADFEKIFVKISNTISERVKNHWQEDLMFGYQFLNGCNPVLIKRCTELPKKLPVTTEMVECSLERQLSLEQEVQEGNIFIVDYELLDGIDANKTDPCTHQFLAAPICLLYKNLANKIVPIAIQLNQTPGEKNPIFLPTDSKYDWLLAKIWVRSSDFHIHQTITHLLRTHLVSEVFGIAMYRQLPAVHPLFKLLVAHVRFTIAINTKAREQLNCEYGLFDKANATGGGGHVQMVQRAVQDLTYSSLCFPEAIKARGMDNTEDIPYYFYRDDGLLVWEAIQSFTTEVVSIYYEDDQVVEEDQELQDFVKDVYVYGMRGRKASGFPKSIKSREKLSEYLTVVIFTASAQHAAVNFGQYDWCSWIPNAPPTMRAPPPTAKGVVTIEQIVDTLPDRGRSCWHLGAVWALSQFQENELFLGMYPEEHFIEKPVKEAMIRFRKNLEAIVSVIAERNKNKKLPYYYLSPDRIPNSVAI
As to the kind of experiment: 5-Lipoxygenase inhibiting action: 5-HETE production in rat basophilic leukemia (RBL-1) cells (HPLC). In kind it is cell-based. To be noted: read-out: Effect of Inhibiting 5-Lipoxygenase, % Inhibition (IE); for inhibition at 10 µM: 10^-5 M; for inhibition at 1 µM: 10^-6 M; for inhibition at 0.1 µM: 10^-7 M; for inhibition at 0.01 µM: 10^-8 M. As to the method: In 0.5 ml of MCM (mast cell medium) was suspended 10^7 of rat basophilic leukemia (RBL-1) cells. To this suspension was added the test solution previously prepared [consisting of 0.5 ml of MCM, 50 μg of arachidonic acid, 10 μg of calcium ionophore A-23187 and the test compound (final concentrations 10 μm, 1 μm, 0.1 μm and 0.01 μm)], and the reaction was allowed to proceed at 37° C. for 20 minutes. To the reaction mixture was added 4 ml of ethanol, which was shaken sufficiently, followed by leaving the resultant mixture standing for 10 minutes at room temperatures. The resultant mixture was subjected to a centrifuge (2000 rpm) for 10 minutes, then the supernatant was separated. Thus-separated supernatant was concentrated to dryness under reduced pressure. To the concentrate was added 0.5 ml of a 60% aqueous methanol. A 100μl Portion of this solution was taken and subjected to high performance liquid chromatography to perform quantitative determination of 5-HETE (5-hydroxyeicosatetraenoic acid). UV absorption of 5-HETE at 237 nm was measured with a UV absorption monitor. The inhibitory effect (IE) of 5-HETE is expressed by (1-b/a)×100. In this formula, a means the height of the peak or the area of the peak in the case of presence of no compound (I), while b means the height of the peak or the area of the peak in the case of presence of the compound (I).

For test [2], the target named is T2, 12-Lipoxygenase (Rattus norvegicus, UniProt F1LQ70).
T2 construct: from tissue; host or cells: Wistar rat platelets (PRP mixed with PPP, from citrated aortic blood)
T2 sequence (F1LQ70 1-663): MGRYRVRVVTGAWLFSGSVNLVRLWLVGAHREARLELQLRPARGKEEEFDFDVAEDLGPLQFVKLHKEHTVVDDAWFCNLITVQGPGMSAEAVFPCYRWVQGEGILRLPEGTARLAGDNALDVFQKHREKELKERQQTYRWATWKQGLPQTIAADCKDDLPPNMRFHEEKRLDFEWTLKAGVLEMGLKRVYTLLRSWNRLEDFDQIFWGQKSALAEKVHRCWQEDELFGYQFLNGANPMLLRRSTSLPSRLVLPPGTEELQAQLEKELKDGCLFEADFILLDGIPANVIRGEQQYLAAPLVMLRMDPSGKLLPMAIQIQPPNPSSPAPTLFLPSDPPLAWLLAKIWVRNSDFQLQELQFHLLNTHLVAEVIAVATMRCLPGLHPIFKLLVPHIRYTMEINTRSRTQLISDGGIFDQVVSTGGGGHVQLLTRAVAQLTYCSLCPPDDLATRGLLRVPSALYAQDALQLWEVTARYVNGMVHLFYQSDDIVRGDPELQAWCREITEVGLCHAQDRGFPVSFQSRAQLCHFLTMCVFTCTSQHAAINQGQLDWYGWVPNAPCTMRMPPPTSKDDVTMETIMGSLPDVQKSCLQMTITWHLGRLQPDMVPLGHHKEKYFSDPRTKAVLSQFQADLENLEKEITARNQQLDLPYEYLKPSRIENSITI
Nature of the test: 12-Lipoxygenase inhibitory action: 12-HETE production in Wistar rat platelets (HPLC). In kind it is cell-based. Conditions: read-out: 12-Lipoxygenase Inhibitory Action, % Inhibition (IE); for inhibition at 100 µM: 10^-4 M; for inhibition at 10 µM: 10^-5 M; for inhibition at 1 µM: 10^-6 M; for inhibition at 0.1 µM: 10^-7 M. As to the method:
Through the descending aorta of a Wistar rat, 10 ml of blood was collected, under anesthesia, together with citric acid of a volume corresponding to 10%. PRP and PPP were respectively prepared, then they were mixed to make the number of platelets to be 10^9 /ml. To 2.5 μl each of the test solutions prepared in advance (final concentrations of the test compounds : 100 μm, 10 μm, 1 μm and 0.1 μm) was added 0.225 ml of the platelet solution. The respective solutions were kept at 37° C. for 5 minutes, to which was added 25 μl each of arachidonic acid solution (50 μg/ml) , then the respective mixtures were shaken immediately. The reaction was allowed to proceed at 37° C. for 15 minutes, and there was added ethanol (1 ml) to stop the reaction. The reaction mixture was subjected to a centrifuge (2000 rpm) for 5 minutes. One ml of the supernatant was taken, which was mixed with 1 ml of water. 100 μl of this mixture solution was subjected to high performance liquid chromatography to quantitatively determine 12-HETE. The detection was conducted at 240 nm. The calculation of the inhibition rate was conducted in a manner as in the case of 5-HETE.

As to `Cc1c(C)c2c(c(C)c1O)CC(C)(CBr)O2` (centres unmarked) [Compound 6], in test [1], the inhibition at 10 µM worked out at 100%, the inhibition at 1 µM stood at 100%, the inhibition at 0.1 µM amounted to 52% and the inhibition at 0.01 µM was 4%. In test [2], the inhibition at 100 µM came to 98%, the inhibition at 10 µM came to 88%, the inhibition at 1 µM turned out to be 16% and the inhibition at 0.1 µM worked out at 2%.

Take `Cc1c(C)c2c(c(C)c1O)CC(C)(C=Cc1ccccc1)O2` (centres unmarked) [Compound 10]: in test [1], the inhibition at 10 µM was determined as 100%, the inhibition at 1 µM is 99%, the inhibition at 0.1 µM amounted to 98% and the inhibition at 0.01 µM was determined as 12%. Besides, in test [2], the inhibition at 100 µM is 96%, the inhibition at 10 µM worked out at 92%, the inhibition at 1 µM came to 52% and the inhibition at 0.1 µM was 45%.

On to `Cc1c(C)c2c(c(C)c1O)CC(C)(CCc1ccccc1)O2` (centres unmarked) [Compound 12], for which, in test [1], the inhibition at 10 µM is 100%, the inhibition at 1 µM amounted to 100%, the inhibition at 0.1 µM was found to be 90% and the inhibition at 0.01 µM is 46%. Moreover, in test [2], the inhibition at 100 µM is 95%, the inhibition at 10 µM came out at 82% and the inhibition at 1 µM is 11%.

For orientation: inhibition means how much of the control response was suppressed.

The values are drawn from patent publication US4978761A, “5-hydroxy-2-substituted-2,4,6,7-tetramethyl-2,3-dihydrobenzofurans” (Takeda Chemical Industries, Ltd., priority 1988, dated 1990).
